Results taken from article PMC5112770 (ACS chemical neuroscience, 2015).
Read-outs that look alike come from different tables or passages of the source.

How the values were obtained:
tau [1] = target: T1, tau (Homo sapiens, UniProt P10636); type: biochemical
tau [2] = target: T1, tau; type: biochemical; remark: listed apart in the source

T1 sequence (P10636 1-441 isoform P10636-8): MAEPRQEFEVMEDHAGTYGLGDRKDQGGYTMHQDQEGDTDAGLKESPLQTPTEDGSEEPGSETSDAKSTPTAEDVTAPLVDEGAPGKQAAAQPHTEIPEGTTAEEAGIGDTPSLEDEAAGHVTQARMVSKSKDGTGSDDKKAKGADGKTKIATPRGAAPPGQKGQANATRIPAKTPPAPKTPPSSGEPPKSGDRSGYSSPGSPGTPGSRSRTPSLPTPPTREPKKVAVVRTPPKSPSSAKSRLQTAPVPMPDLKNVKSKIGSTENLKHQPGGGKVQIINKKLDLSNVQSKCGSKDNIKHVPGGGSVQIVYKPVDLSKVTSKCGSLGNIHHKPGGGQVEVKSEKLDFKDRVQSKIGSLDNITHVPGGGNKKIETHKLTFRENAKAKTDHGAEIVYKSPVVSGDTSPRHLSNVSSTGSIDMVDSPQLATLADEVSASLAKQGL

IC50 (tau [1]) | IC50 (tau [2]) | SMILES
56 ± 14 µM | – | CC[C@H](C)/C=C(C)/C=C/C1=CC2=C(Br)C(=O)C(C)(OC(C)=O)C(=O)C2=CO1 (some centres unmarked) [aza-9]
– | 216 ± 18 µM | CC[C@H](C)/C=C(C)/C=C/C1=CC2=C(Br)C(=O)C(C)(O)C(=O)C2=CO1 (some centres unmarked) [aza-13]
